Test [1] deals with T1, Serine/threonine-protein kinase 17B (Homo sapiens, UniProt O94768).
T1 sequence (O94768 whole entry): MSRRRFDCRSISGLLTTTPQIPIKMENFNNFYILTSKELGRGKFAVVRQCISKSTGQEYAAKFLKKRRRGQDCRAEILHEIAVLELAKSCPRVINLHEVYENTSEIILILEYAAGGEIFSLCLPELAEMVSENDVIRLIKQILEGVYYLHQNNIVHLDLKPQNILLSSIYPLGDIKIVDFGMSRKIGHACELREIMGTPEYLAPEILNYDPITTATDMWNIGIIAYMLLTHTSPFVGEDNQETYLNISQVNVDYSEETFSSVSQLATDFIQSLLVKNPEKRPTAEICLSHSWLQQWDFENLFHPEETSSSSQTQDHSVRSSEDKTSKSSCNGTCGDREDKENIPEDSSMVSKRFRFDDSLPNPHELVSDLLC
Put plainly: Binding affinity to DRAK2 (unknown origin) ATP site.

For test [2], the target named is T1, Serine/threonine-protein kinase 17B. Put plainly: Inhibition of DRAK2 (unknown origin) using 33P-ATP after 30 mins by Trilux scintillation counting.
Test [3] shares this target. Nature of the test: Inhibition of DRAK2 (unknown origin) using 1 uM ATP by biochemical assay.
Test [4] has the same target. Nature of the test: Inhibition of DRAK2 (unknown origin) using 5 uM ATP by biochemical assay.
Test [5] shares this target. Put plainly: Inhibition of DRAK2 (unknown origin) using 10 uM ATP by biochemical assay.
Test [6] has the same target. Put plainly: Inhibition of DRAK2 (unknown origin) using 25 uM ATP by biochemical assay.
Test [7] has the same target. Nature of the test: Inhibition of DRAK2 (unknown origin) using 50 uM ATP by biochemical assay.
Test [8] has the same target. Nature of the test: Inhibition of DRAK2 (unknown origin) using 100 uM ATP by biochemical assay.
Test [9] shares this target. Nature of the test: Inhibition of DRAK2 (unknown origin) using 250 uM ATP by biochemical assay.
Test [10] shares this target. Nature of the test: Inhibition of DRAK2 (unknown origin) using 500 uM ATP by biochemical assay.

The term pKd denotes the negative decadic logarithm of the Kd, by convention in mol/L. A low value points to a large Kd. As a reminder, the pIC50 is the negative decadic logarithm of the IC50, by convention in mol/L.

pIC50, pKd: −log10 of the molar value.

On to `COc1ccc(-c2ccc3snc(NC(=O)C4CCCCC4)c3c2)cc1OC`, for which, in test [1], the negative logarithm of the Kd (pKd) is 5.57.

`COc1ccc(-c2cnc3scc(NC(=O)C4CCCCC4)c3n2)cc1OC` had a pKd in test [1] of 7.57. Moreover, the negative-log IC50 (pIC50) in test [2] is 5.75. `COc1cc(-c2cnc3snc(NC(=O)C4CCCCC4)c3c2)ccc1N`: the pKd in [1] is 6.18. `O=C(Nc1nsc2ncc(-c3ccc(O)cc3)cc12)C1CCCCC1`: the negative-log Kd (pKd) in test [1] was 5.49. `COc1ccc(-c2cnc3snc(NC(=O)C4CCCCCC4)c3c2)cc1OC` showed a pKd in test [1] of 6.28. `COc1ccc(-c2cnc3scc(NC(=O)C4CCCCC4)c3c2)cc1OC` showed a negative logarithm of the Kd (pKd) in test [1] of 8.05. Also, the negative-log IC50 (pIC50) in test [2] was 6.07; in test [3] it was 6.43; in [4], 6.29; in test [5], 6.28; in test [6], 6.19; in test [7], 6.14. Besides, the negative logarithm of the IC50 (pIC50) is 6.00 in test [8], 5.83 in [9] and 5.65 in test [10]. `COc1ccc(-c2cnc3[nH]cc(NC(=O)C4CCCCC4)c3c2)cc1OC` had a negative-log Kd (pKd) in test [1] of 7.48. In the case of `O=C(Nc1nsc2ncc(-c3ccsc3)cc12)C1CCCCC1`, the pKd in test [1] was 5.80. This pKd is 1.68 log units lower than that of the molecule before. For `COc1ccc(-c2ccc3scc(NC(=O)C4CCCCC4)c3c2)cc1OC`, in test [1], the pKd was 6.29. Against the preceding molecule, the pKd is 0.49 log units higher.

As for `COc1cc(-c2cnc3snc(NC(=O)C4CCCCC4)c3c2)ccc1O`, in [1], the pKd was 5.70. This pKd is 0.59 log units lower than that of the molecule before.

In turn, `COc1ccc(-c2cnc3snc(NC(=O)C4CCNCC4)c3c2)cc1OC` showed a pKd in test [1] of 5.14. Against the preceding molecule, the pKd is 0.56 log units lower. In turn, `COc1ccc(-c2ccc3onc(NC(=O)C4CCCCC4)c3c2)cc1OC` showed a negative logarithm of the Kd (pKd) in test [1] of 6.02. `O=C(Nc1nsc2ncc(-c3cccs3)cc12)C1CCCCC1`: the negative logarithm of the Kd (pKd) in test [1] is 5.72. Same read-out and setting: next, `COc1ccc(-c2cnc3ncnc(NC(=O)C4CCCCC4)c3n2)cc1OC`: 6.74. Same read-out and setting: with `COc1ccc(-c2cnc3snc(NC(=O)C4CCC4)c3c2)cc1OC` the figure was 5.80; with `Nc1cccc(-c2cnc3snc(NC(=O)C4CCCCC4)c3c2)c1`, 5.64. Still for that read-out and setting: with `COc1ccc(-c2cnc3snc(NC(=O)C4CCCCC4)c3c2)cc1OC` the figure was 5.80; with `COc1ccc(-c2cnc3snc(NC(=O)C4CCCC4)c3c2)cc1OC`, 5.66.

The values above are taken from ChEMBL document CHEMBL3352458, “Discovery of dual death-associated protein related apoptosis inducing protein kinase 1 and 2 inhibitors by a scaffold hopping approach” (J Med Chem, 2014).
